Test results published in patent US20030083313A1, “Means of tumor therapy” (priority 1998, published 2003).

Assays:
breast cancer 3366/Tam = assay: Therapeutic effectivity on tamoxifen-resistant breast cancer xenograft, tumor growth as T/C; type: in vivo; settings: 3366/Tam tumor on female NMRI nude mice; dose Tam/Lipid mg/kg/injection as per group (50/0, 50/25, 0/25), twice a day for 4 weeks
Protocol: (§1) Tam liposomes according to Example 4 are used for the in vivo treatment test. As a tumor model, breast cancer 3366/Tam is transplanted onto female NMRI nude mice and the treatment started when the tumor is palpable. The animals are given one dose of liposomes with 50 mg/kg Tam (and correspondingly 25 mg/kg OPP) twice a day for 4 weeks. As controls, liposomes containing no Tam are administered, in addition one group being treated with free Tam. The tumor growth in relation to the control group (physiological salt solution) is determined and portrayed as a percentage T/C, as shown in FIG. 1 and in Table 1. […] The living cells were determined with the MTT assay.

[1] = Alteration of body weight in the in vivo treatment test; settings: 3366/Tam-bearing female NMRI nude mice, dose Tam/Lipid mg/kg/injection as per group, twice a day for 4 weeks
Protocol: as §1

CC/C(=C(\c1ccccc1)c1ccc(OCCN(C)C)cc1)c1ccccc1 [tamoxifen]
T/C (tumor growth in relation to the control group, physiological salt solution) (breast cancer 3366/Tam): 91%
Alteration of body weight % (day 29/51) [1]: −5%
